pIC50: −log10 of the molar value. Calls of active or inactive are those of the source. The calls are words filed in the database; no cut-off is given here.
Tests used:
[1] = system: Plasmodium falciparum; assay: Antimalarial activity against CQ-resistant Plasmodium falciparum NF54-R assessed as inhibition of parasite growth; assay type: functional, organism-based
[2] = system: Plasmodium falciparum; assay: Antimalarial activity against CQ-sensitive Plasmodium falciparum 3D7 assessed as inhibition of parasite growth; assay type: functional, organism-based
[3] = system: Heme; assay: Binding affinity to monomeric heme after 24 hrs by UV-Visible Spectroscopic analysis
[4] = system: Plasmodium falciparum; assay: Antiplasmodial activity against Plasmodium falciparum infected in human erythrocytes assessed as reduction in hemozoin size at 30 nM after 48 hrs by giemsa staining based light microscopic analysis; assay type: functional, organism-based
[5] = system: Plasmodium falciparum; assay: Antimalarial activity against CQ-resistant Plasmodium falciparum W2 infected in human erythrocytes after 48 hrs by SYBR Green1 dye based fluorescence assay; assay type: functional, organism-based; conditions: W2, 48 h
[6] = system: Heme; assay: Binding affinity to monomeric heme at 100 nM to 4.5 uM after 24 hrs by UV-Visible Spectroscopic analysis
[7] = system: Plasmodium falciparum; assay: Antimalarial activity against CQ-sensitive Plasmodium falciparum 3D7 infected in human erythrocytes after 96 hrs by SYBR Green1 dye based fluorescence assay; assay type: functional, organism-based; conditions: 3D7, 96 h
[8] = system: Plasmodium falciparum; assay: Binding affinity to Gyrase in Plasmodium falciparum assessed as accumulation of single-stranded DNA binding protein at 15 uM after 96 hrs by Western blot analysis
[9] = system: Plasmodium falciparum; assay: Antimalarial activity against Plasmodium falciparum infected in human erythrocytes assessed as parasitemia at 1 to 15 uM after 96 hrs by SYBR Green1 dye based fluorescence assay; assay type: functional, organism-based
[10] = system: Plasmodium falciparum; assay: Antimalarial activity against Plasmodium falciparum infected in human erythrocytes assessed as parasitemia at 1 to 15 uM after 48 hrs by SYBR Green1 dye based fluorescence assay; assay type: functional, organism-based
[11] = system: Plasmodium falciparum; assay: Antimalarial activity against CQ-resistant Plasmodium falciparum W2 infected in human erythrocytes after 96 hrs by SYBR Green1 dye based fluorescence assay; assay type: functional, organism-based; conditions: W2, 96 h
[12] = system: Plasmodium falciparum; assay: Antimalarial activity against CQ-sensitive Plasmodium falciparum 3D7 infected in human erythrocytes after 48 hrs by SYBR Green1 dye based fluorescence assay; assay type: functional, organism-based; conditions: 3D7, 48 h
[13] = system: Erythrocyte; assay: Hemolytic activity against human RBC infected with CQ-resistant Plasmodium falciparum W2 at 10 to 45 uM; assay type: ADME, cell-based
[14] = Lipophilicity, log P of the compound; assay type: physicochemical; conditions: octanol/water
[15] = system: Erythrocyte; assay: Hemolytic activity against uninfected human RBC at 10 to 45 uM; assay type: ADME, cell-based
[16] = system: Erythrocyte; assay: Hemolytic activity against human RBC infected with CQ-sensitive Plasmodium falciparum 3D7 at 10 to 45 uM; assay type: ADME, cell-based
[17] = system: Plasmodium falciparum; assay: Potency index, ratio of ciprofloxacin IC50 to test compound IC50 for antimalarial activity against CQ-resistant Plasmodium falciparum W2 infected in human erythrocytes after 48 hrs by SYBR Green1 dye based fluorescence assay; assay type: functional
[18] = system: Plasmodium falciparum; assay: Potency index, ratio of ciprofloxacin IC50 to test compound IC50 for antimalarial activity against CQ-resistant Plasmodium falciparum W2 infected in human erythrocytes after 96 hrs by SYBR Green1 dye based fluorescence assay; assay type: functional
[19] = system: Plasmodium falciparum; assay: Potency index, ratio of ciprofloxacin IC50 to test compound IC50 for antimalarial activity against CQ-sensitive Plasmodium falciparum 3D7 infected in human erythrocytes after 96 hrs by SYBR Green1 dye based fluorescence assay; assay type: functional
[20] = system: Plasmodium falciparum; assay: Resistance index, ratio of IC50 for antimalarial activity against CQ-resistant Plasmodium falciparum W2 infected in human erythrocytes after 48 hrs to IC50 for antimalarial activity against CQ-sensitive Plasmodium falciparum 3D7 infected in human erythrocytes after 48 hrs by SYBR Green1 dye based fluorescence assay; assay type: functional
[21] = system: Plasmodium falciparum; assay: Potency index, ratio of chloroquine IC50 to test compound IC50 for antimalarial activity against CQ-resistant Plasmodium falciparum W2 infected in human erythrocytes after 48 hrs by SYBR Green1 dye based fluorescence assay; assay type: functional
[22] = system: Plasmodium falciparum; assay: Potency index, ratio of ciprofloxacin IC50 to test compound IC50 for antimalarial activity against CQ-sensitive Plasmodium falciparum 3D7 infected in human erythrocytes after 48 hrs by SYBR Green1 dye based fluorescence assay; assay type: functional
[23] = system: Plasmodium falciparum; assay: Antimalarial activity against synchronized ring stage of Plasmodium falciparum infected in human erythrocytes at 50 to 100 nM; assay type: functional, organism-based
[24] = system: NIH3T3; assay: Cytotoxicity against mouse NIH/3T3 cells up to 10 uM after 72 hrs by MTT assay; assay type: cell-based; conditions: nih3t3, 72 h
[25] = system: Plasmodium falciparum; assay: Antimalarial activity against Plasmodium falciparum infected in human erythrocytes assessed as parasitemia at 1 to 10 nM after 48 hrs by SYBR Green1 dye based fluorescence assay; assay type: functional, organism-based
[26] = system: Plasmodium falciparum; assay: Antimalarial activity against Plasmodium falciparum infected in human erythrocytes assessed as parasitemia at 1 to 10 nM after 96 hrs by SYBR Green1 dye based fluorescence assay; assay type: functional, organism-based
[27] = system: Plasmodium falciparum; assay: Binding affinity to Gyrase in Plasmodium falciparum assessed as accumulation of single-stranded DNA binding protein at 25 nM after 96 hrs by Western blot analysis
[28] = system: Plasmodium falciparum; assay: Antimalarial activity against synchronized schizont stage of Plasmodium falciparum infected in human erythrocytes at 50 to 100 nM; assay type: functional, organism-based
[29] = system: Escherichia coli; assay: Toxicity in Escherichia coli DH10B assessed as growth inhibition at 500 nM to 1 uM after 6 hrs; assay type: organism-based, str. K-12 substr. DH10B; conditions: in vivo, 0.5 µM
[30] = system: Plasmodium falciparum; assay: Antiplasmodial activity against Plasmodium falciparum infected in human erythrocytes assessed as reduction in hemozoin size at 50 to 100 nM after 48 hrs by giemsa staining based light microscopic analysis; assay type: functional, organism-based

| SMILES | pIC50 [1] | pIC50 [2] | pIC50 [5] | pIC50 [7] | pIC50 [11] | pIC50 [12] | Activity [13] | logP [14] | Activity [15] | Activity [16] | also measured |
| --- | --- | --- | --- | --- | --- | --- | --- | --- | --- | --- | --- |
| Cc1c(F)c(N2CCNC(C)C2)cc2c1c(=O)c(C(=O)O)cn2C1CC1 (stereo not given) [GREPAFLOXACIN] | < 5.00 | < 5.00 | – | – | – | – | – | – | – | – | – |
| CCN(CC)CCCC(C)Nc1ccnc2cc(Cl)ccc12 (stereo not given) | – | – | – | – | – | – | – | – | – | – | Activity [3]: Dose-dependent effect; Activity [4]: Active |
| O=C(O)c1cn(C2CC2)c2cc(N3CCNCC3)c(F)cc2c1=O [CIPROFLOXACIN] | – | – | 4.43 | 4.58 | 4.64 | 4.34 | – | – | – | – | Activity [6]: inactive; Activity [8]: Active; Activity [9]: Active; Activity [10]: inactive |
| CCOC(=O)c1cn(C2CC2)c2cc(N3CCN(c4c5ccc(Cl)cc5nc5ccc(OC)cc45)CC3)c(F)cc2c1=O | – | – | – | 6.51 | – | 6.44 | Non-Toxic | 6.31 | Non-Toxic | Non-Toxic | – |
| COc1c(N2C[C@@H]3CCCN[C@@H]3C2)c(F)cc2c(=O)c(C(=O)O)cn(C3CC3)c12 [MOXIFLOXACIN] | < 5.00 | < 5.00 | – | – | – | – | – | – | – | – | – |
| CCOC(=O)c1cn(C2CC2)c2cc(N3CCN(S(=O)(=O)c4ccc(C(F)(F)F)cc4)CC3)c(F)cc2c1=O | – | – | 6.84 | 7.83 | 7.48 | 7.42 | Non-Toxic | 4.29 | Non-Toxic | Non-Toxic | Ratio IC50 [17]: 200 - 700; Ratio IC50 [18]: 200 - 700; Ratio IC50 [19]: 1000; Ratio IC50 [20]: 3.88; Ratio IC50 [21]: 7; Ratio IC50 [22]: 1000 |
| CCOC(=O)c1cn(C2CC2)c2cc(N3CCN(c4ccnc5cc(Cl)ccc45)CC3)c(F)cc2c1=O | – | – | 7.20 | 7.87 | 7.51 | 7.59 | Non-Toxic | 5.02 | Non-Toxic | Non-Toxic | Ratio IC50 [17]: 200 - 700; Ratio IC50 [18]: 200 - 700; Activity [6]: inactive; Activity [23]: Active; Activity [24]: Non-Toxic; Activity [25]: Active; Activity [26]: Active; Activity [27]: inactive; Activity [28]: Active; Ratio IC50 [19]: 1000; Activity [29]: Non-Toxic; Activity [30]: inactive; Ratio IC50 [20]: 2.47; Ratio IC50 [21]: 3; Ratio IC50 [22]: 1000 |
| COc1c(N2CCNC(C)C2)c(F)cc2c(=O)c(C(=O)O)cn(C3CC3)c12 (stereo not given) [GATIFLOXACIN] | < 5.00 | < 5.00 | – | – | – | – | – | – | – | – | – |
| CCOC(=O)c1cn(C2CC2)c2cc(N3CCN(C(=O)/C=C/c4ccccc4)CC3)c(F)cc2c1=O | – | – | – | 5.32 | – | 5.04 | Non-Toxic | 3.81 | Non-Toxic | Non-Toxic | – |

Source: ChEMBL document CHEMBL4622966, “Synthesis of Novel Ciprofloxacin-Based Hybrid Molecules toward Potent Antimalarial Activity” (ACS Med Chem Lett, 2020)
